# Reference: patent US8343458B2, “Probes for in vivo targeting of active cysteine proteases” (The Board of Trustees of the Leland Stanford Junior …, priority 2008, dated 2013)
# Where “and” joins values, the source holds several entries; their conditions need not be identical. Equal entries are not always repeated.
# Test system: MDA-MB-435 tumors
# Assay: Biodistribution in nude mice bearing subcutaneous MDA-MB-435 tumors
# Assay type: in vivo, mouse
# Details: for Biodistribution: Blood / Biodistribution: Bone / Biodistribution: Brain / Biodistribution: Heart / Biodistribution: Intestines / Biodistribution: Kidney / Biodistribution: Liver / Biodistribution: Lung / Biodistribution: Muscle / Biodistribution: Pancreas / Biodistribution: Spleen / Biodistribution: Stomach / Biodistribution: Tumor / Tumor/Blood ratio / Tumor/Muscle ratio: MDA-MB-435 tumor mice, i.v. 740 kBq
# Experimental: All animal studies were carried out in compliance with Federal and local institutional rules for the conduct of animal experimentation. Female athymic nude mice (nu/nu) were obtained from Charles River Laboratories (Boston, Mass.) at 7-8 weeks old and kept under sterile conditions. The nude mice were inoculated subcutaneously in the right shoulder with 2×10^6 cultured C2C12/Ras cells or 5×10^6 MDA-MB-435 cells. When the tumors reach 0.5-0.8 cm in diameter, the tumor bearing mice were subjected to in vivo biodistribution studies. For biodistribution studies, the mice bearing C2C12/Ras or MDA-MB-435 tumor xenografts (n=3 for each group) were injected with 740 KBq (20 μCi) of ^64Cu labeled tracer through the tail vein and sacrificed at different time points post injection (p.i.). Tumor and normal tissues of interest were removed and weighed, and their radioactivity was measured in a gamma-counter. The radioactivity uptake in the tumor and normal tissues was expressed as a percentage of the injected radioactive dose per gram of tissue (% ID/g).
# We next examined the overall biodistribution of ^64Cu-Z-FK(DOTA)-AOMK using athymic nude mice carrying subcutaneously grafted C2C12/Ras and MDA-MB-435 tumors. […] Importantly, we observed rapid accumulation of radioactivity in the C2C12/Ras tumors expressing high levels of cysteine cathepsins (0.35±0.13% ID/g at 0.5 h p.i.). This activity remained in the tumors resulting in an uptake of 0.27±0.05% ID/g at 24 h p.i. For the MDA-MB-435 tumors with lower cysteine cathepsin expression, tumor uptake was approximately 2 fold lower at each time point relative to the C2C12/Ras tumors (P<0.05). […] The highest radioactivity was found in the liver due to high endogenous expression of various cysteine cathepsins. Moderate renal accumulation was also observed at all times in both tumor models.
# Data are expressed as the percentage administered activity (injected dose) per gram of tissue (% ID/g) after intravenous injection of 740 kBq (20 μCi) of ^64Cu-Z-FK(DOTA)-AOMK at 0.5, 2, and 24 h pi (n=3). Significant lower tumor uptake and tumor/blood, tumor/muscle ratio in MDA-MB-435 breast cancer (P<0.05) were observed.
smiles,measurement,setting,value
Cc1cccc(C)c1C(=O)OCC(=O)[C@H](CCCCNC(=O)CN1CCN(CC(=O)[O-])CCN(CC(=O)O)CCN(CC(=O)[O-])CC1)NC(=O)[C@H](Cc1ccccc1)NC(=O)OCc1ccccc1.[64Cu+2] [^64Cu-Z-FK(DOTA)-AOMK],Biodistribution: Blood,2 h p.i.,0.29 ± 0.01 % ID/g
same,Biodistribution: Bone,2 h p.i.,0.18 ± 0.06 % ID/g
same,Biodistribution: Brain,2 h p.i.,0.04 ± 0.01 % ID/g
same,Biodistribution: Heart,2 h p.i.,0.43 ± 0.09 % ID/g
same,Biodistribution: Intestines,2 h p.i.,1.95 ± 1.24 % ID/g
same,Biodistribution: Kidney,2 h p.i.,1.11 ± 0.05 % ID/g
same,Biodistribution: Liver,2 h p.i.,2.64 ± 0.08 % ID/g
same,Biodistribution: Lung,2 h p.i.,0.72 ± 0.08 % ID/g
same,Biodistribution: Muscle,2 h p.i.,0.06 ± 0.00 % ID/g
same,Biodistribution: Pancreas,2 h p.i.,0.25 ± 0.05 % ID/g
same,Biodistribution: Spleen,2 h p.i.,0.31 ± 0.05 % ID/g
same,Biodistribution: Stomach,2 h p.i.,0.45 ± 0.07 % ID/g
same,Biodistribution: Tumor,2 h p.i.,0.18 ± 0.00 % ID/g
same,Tumor/Blood ratio,2 h p.i.,0.61 and 0.61 ± 0.02
same,Tumor/Muscle ratio,2 h p.i.,3.03 and 3.03 ± 0.20
same,Biodistribution: Blood,24 h p.i.,0.28 ± 0.13 % ID/g
same,Biodistribution: Bone,24 h p.i.,0.20 ± 0.20 % ID/g
same,Biodistribution: Brain,24 h p.i.,0.05 ± 0.01 % ID/g
same,Biodistribution: Heart,24 h p.i.,0.42 ± 0.15 % ID/g
same,Biodistribution: Intestines,24 h p.i.,0.35 ± 0.08 % ID/g
same,Biodistribution: Kidney,24 h p.i.,0.63 ± 0.08 % ID/g
same,Biodistribution: Liver,24 h p.i.,1.37 ± 0.19 % ID/g
same,Biodistribution: Lung,24 h p.i.,0.47 ± 0.08 % ID/g
same,Biodistribution: Muscle,24 h p.i.,0.06 ± 0.02 % ID/g
same,Biodistribution: Pancreas,24 h p.i.,0.18 ± 0.11 % ID/g
same,Biodistribution: Spleen,24 h p.i.,0.31 ± 0.21 % ID/g
same,Biodistribution: Stomach,24 h p.i.,0.34 ± 0.29 % ID/g
same,Biodistribution: Tumor,24 h p.i.,0.14 ± 0.05 % ID/g
same,Tumor/Blood ratio,24 h p.i.,0.54 ± 0.12
same,Tumor/Muscle ratio,24 h p.i.,2.21 ± 0.34
same,"Tumor uptake in MDA-MB-435 tumors, fold lower relative to C2C12/Ras tumors","at each time point (2 h, 24 h), P<0.05",approximately 2 fold
